Results: the supplement of paper PMC10307832

Legend:
Experiment in all cases: relative viability (nuclei count vs DMSO), 5 days (fraction); higher = more cells survive
Daporinad + Pemetrexed = compound: O=C(/C=C/c1cccnc1)NCCCCC1CCN(C(=O)c2ccccc2)CC1 [Daporinad] + Nc1nc2[nH]cc(CCc3ccc(C(=O)N[C@@H](CCC(=O)O)C(=O)O)cc3)c2c(=O)[nH]1 [Pemetrexed] (partner 0.2 µM)
How it was run: (§1)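 Relative viability equals treated-well nuclei counts divided by vehicle-well nuclei counts. Counts came from 4× images of lung cancer cell lines grown in 1536-well plates for 5 days after pin-tool dosing on the day after seeding. Dosing used one drug alone or a fixed anchor-drug dose plus five library-drug doses (not always all listed) in √10 steps, and values are medians of duplicate plates.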

R406 + Pemetrexed = compound: COc1cc(Nc2ncc(F)c(Nc3ccc4c(n3)NC(=O)C(C)(C)O4)n2)cc(OC)c1OC [R406] + Nc1nc2[nH]cc(CCc3ccc(C(=O)N[C@@H](CCC(=O)O)C(=O)O)cc3)c2c(=O)[nH]1 [Pemetrexed] (partner 0.2 µM)
How it was run: as §1

Daporinad + Trametinib = compound: O=C(/C=C/c1cccnc1)NCCCCC1CCN(C(=O)c2ccccc2)CC1 [Daporinad] + CC(=O)Nc1cccc(-n2c(=O)n(C3CC3)c(=O)c3c(Nc4ccc(I)cc4F)n(C)c(=O)c(C)c32)c1 [Trametinib] (partner 0.02 µM)
How it was run: as §1

Daporinad + Foretinib = compound: O=C(/C=C/c1cccnc1)NCCCCC1CCN(C(=O)c2ccccc2)CC1 [Daporinad] + COc1cc2c(Oc3ccc(NC(=O)C4(C(=O)Nc5ccc(F)cc5)CC4)cc3F)ccnc2cc1OCCCN1CCOCC1 [Foretinib] (partner 0.25 µM)
How it was run: as §1

Row | Cell Line | relative viability (Daporinad + Pemetrexed; first compound 0.0005 µM) | relative viability (Daporinad + Pemetrexed; first compound 0.001581 µM) | relative viability (Daporinad + Pemetrexed; first compound 0.005 µM) | relative viability (Daporinad + Pemetrexed; first compound 0.01581 µM) | relative viability (R406 + Pemetrexed; first compound 0.08 µM) | relative viability (R406 + Pemetrexed; first compound 0.253 µM) | relative viability (R406 + Pemetrexed; first compound 0.8 µM) | relative viability (R406 + Pemetrexed; first compound 2.53 µM) | relative viability (R406 + Pemetrexed; first compound 8 µM) | relative viability (Daporinad + Trametinib; first compound 0.0005 µM) | relative viability (Daporinad + Trametinib; first compound 0.001581 µM) | relative viability (Daporinad + Trametinib; first compound 0.005 µM) | relative viability (Daporinad + Trametinib; first compound 0.01581 µM) | relative viability (Daporinad + Foretinib; first compound 0.0005 µM) | relative viability (Daporinad + Foretinib; first compound 0.001581 µM) | relative viability (Daporinad + Foretinib; first compound 0.005 µM) | relative viability (Daporinad + Foretinib; first compound 0.01581 µM)
1 | EMC-BAC-2 | 0.428 | 0.482 | 0.421 | 0.388 | 0.421 | 0.457 | 0.427 | 0.499 | 0.229 | 0.868 | 0.935 | 0.8 | 0.433 | 1.14 | 1.1 | 0.518 | 0.314
2 | LU99A | 0.165 | 0.142 | 0.18 | 0.156 | 0.188 | 0.183 | 0.224 | 0.187 | 0.172 | 0.511 | 0.562 | 0.598 | 0.613 | 0.774 | 0.807 | 0.796 | 0.772
3 | ABC-1 |  |  |  |  |  |  |  |  |  |  |  |  |  | 1.09 | 1.01 | 1.01 | 0.662
4 | NCI-H1793 | 0.727 | 1.03 | 1 | 1.05 | 0.711 | 1.09 | 1.15 | 0.147 | 0.157 | 0.362 | 0.453 | 0.525 | 0.389 | 0.738 | 0.868 | 0.956 | 0.807
5 | NCI-H1299 |  |  |  |  |  |  |  |  |  |  |  |  |  | 1.12 | 1.08 | 1.14 | 1.04
6 | EBC-1 |  |  |  |  |  |  |  |  |  |  |  |  |  | 0.101 | 0.0907 | 0.0742 | 0.0756
7 | NCI-H2347 | 0.441 | 0.402 | 0.472 | 0.454 | 0.402 | 0.398 | 0.433 | 0.395 | 0.387 | 0.301 | 0.288 | 0.281 | 0.329 | 1.13 | 1.17 | 1.35 | 1.33
8 | NCI-H1993 | 0.54 | 0.561 | 0.644 | 0.567 | 0.618 | 0.5 | 0.678 | 0.578 | 0.464 | 0.485 | 0.514 | 0.633 | 0.555 | 0.749 | 0.741 | 0.746 | 0.918
9 | NCI-H322M | 0.638 | 0.634 | 0.635 | 0.46 | 0.532 | 0.596 | 0.63 | 0.466 | 0.396 | 0.507 | 0.484 | 0.504 | 0.441 | 0.964 | 1.13 | 0.886 | 0.478
10 | PC-14 | 0.0976 | 0.126 | 0.153 | 0.146 | 0.139 | 0.131 | 0.135 | 0.101 | 0.042 | 0.657 | 0.654 | 0.722 | 0.572 | 0.985 | 1.06 | 1 | 1.01
11 | HARA | 0.24 | 0.258 | 0.227 | 0.276 | 0.261 | 0.236 | 0.246 | 0.262 | 0.174 | 0.833 | 0.761 | 0.627 | 0.403 | 0.942 | 0.98 | 0.922 | 0.279
12 | NCI-H2087 | 0.675 | 0.739 | 0.711 | 0.764 | 0.712 | 0.733 | 0.683 | 0.746 | 0.679 | 0.18 | 0.213 | 0.263 | 0.22 | 1.1 | 1.3 | 1.19 | 0.978
13 | NCI-H1437 | 0.312 | 0.313 | 0.316 | 0.332 | 0.297 | 0.316 | 0.317 | 0.259 | 0.203 | 0.444 | 0.544 | 0.551 | 0.518 | 1.17 | 1.24 | 1.34 | 1.22
14 | NCI-H358 | 0.199 | 0.168 | 0.183 | 0.185 | 0.167 | 0.17 | 0.168 | 0.146 | 0.145 | 0.135 | 0.152 | 0.15 | 0.18 | 0.689 | 0.898 | 0.827 | 0.545
15 | NCI-H1792 | 0.721 | 1.02 | 0.76 | 0.674 | 0.838 | 1.07 | 1.39 | 0.0474 | 0.194 | 0.412 | 0.471 | 0.421 | 0.453 |  |  |  | 
16 | ChaGo-K-1 | 0.255 | 0.248 | 0.248 | 0.239 | 0.25 | 0.25 | 0.248 | 0.253 | 0.233 | 0.86 | 0.914 | 0.767 | 0.428 | 0.968 | 0.943 | 0.966 | 0.382
17 | NCI-H661 | 0.959 | 0.791 | 0.652 | 0.51 | 0.943 | 0.92 | 0.86 | 0.767 | 0.685 | 0.665 | 0.746 | 0.52 | 0.376 | 0.999 | 1.03 | 0.671 | 0.573
18 | COR-L23 | 0.194 | 0.198 | 0.208 | 0.196 | 0.2 | 0.182 | 0.191 | 0.183 | 0.191 | 0.577 | 0.662 | 0.737 | 0.302 | 0.993 | 1.01 | 1.14 | 0.282
19 | HCC-44 | 0.623 | 0.593 | 0.677 | 0.765 | 0.585 | 0.621 | 0.603 | 0.601 | 0.726 | 1.02 | 1.15 | 1.08 | 1.07 |  |  |  | 
20 | NCI-H1648 | 0.596 | 0.617 | 0.843 | 0.769 | 0.749 | 0.727 | 0.754 | 0.675 | 0.653 | 0.469 | 0.418 | 0.417 | 0.447 |  |  |  | 
21 | NCI-H1623 |  |  |  |  |  |  |  |  |  |  |  |  |  | 0.726 | 0.754 | 0.801 | 0.866
22 | A549 |  |  |  |  |  |  |  |  |  |  |  |  |  | 1.03 | 0.964 | 0.887 | 0.867
23 | NCI-H1563 | 0.722 | 0.655 | 0.873 | 0.641 | 0.707 | 0.929 | 0.794 | 0.659 | 0.444 |  |  |  |  | 0.893 | 0.972 | 0.999 | 0.86
24 | IA-LM |  |  |  |  |  |  |  |  |  |  |  |  |  | 1.06 | 1.12 | 1.29 | 1.26
25 | NCI-H1703 |  |  |  |  |  |  |  |  |  |  |  |  |  | 0.33 | 0.347 | 0.302 | 0.282
